Each structure is given as a SMILES string. Several values for one entry are separate records, joined by “and”; a condition that tells them apart may be missing. Equal entries are not always repeated. Inconclusive results and toxic doses are left out.

For this assay, the system named is P388 leukemia ip, CD2F1 mice, survival T/C. In words: NCI In Vivo Anticancer Drug Screen. Data for tumor model P388 Leukemia (intraperitoneal) in CD2F1 (CDF1) mice. Conditions: endpoint: median survival time, higher = longer survival. In short, it runs like this: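 Mice carrying the transplanted tumor received test compound or vehicle. Survival was recorded in each group, and the value is the treated-group measurement divided by that of the vehicle-treated control group.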

The mark [1] stands for this setting: dose: 50.0 mg/kg/injection, schedule: Q01DX005 (ip), vehicle: Klucel (hydroxypropylcellulose) (HPC).
[2] abbreviates: dose: 100.0 mg/kg/injection, schedule: Q01DX005 (ip), vehicle: Klucel (hydroxypropylcellulose) (HPC).
[3] abbreviates: dose: 200.0 mg/kg/injection, schedule: Q01DX005 (ip), vehicle: Klucel (hydroxypropylcellulose) (HPC).
Where [4] appears, read: dose: 50.0 mg/kg/injection, schedule: Q01DX009 (ip), vehicle: saline with Tween-80.
[5] abbreviates: dose: 100.0 mg/kg/injection, schedule: Q01DX009 (ip), vehicle: saline with Tween-80.
The mark [6] stands for this setting: dose: 200.0 mg/kg/injection, schedule: Q01DX009 (ip), vehicle: saline with Tween-80.
The mark [7] stands for this setting: dose: 60.0 mg/kg/injection, schedule: Q01DX005 (ip), vehicle: saline with Tween-80.
Where [8] appears, read: dose: 120.0 mg/kg/injection, schedule: Q01DX005 (ip), vehicle: saline with Tween-80.
The mark [9] stands for this setting: dose: 240.0 mg/kg/injection, schedule: Q01DX005 (ip), vehicle: saline with Tween-80.
Where [10] appears, read: dose: 6.25 mg/kg/injection, schedule: Q01DX009 (ip), vehicle: saline with Tween-80.
[11] abbreviates: dose: 12.5 mg/kg/injection, schedule: Q01DX009 (ip), vehicle: saline with Tween-80.
Setting [12] is: dose: 25.0 mg/kg/injection, schedule: Q04DX003 (ip), vehicle: Klucel (hydroxypropylcellulose) (HPC).

Regarding `O=P(NC1CCCC1)(N1CC1)N1CC1`, the T/C (dose: 2.0 mg/kg/injection, schedule: Q04DX003 (ip), vehicle: saline) was 110 % of control; the T/C (dose: 2.66 mg/kg/injection, schedule: Q01DX009 (ip), vehicle: saline) is 154 % of control; the T/C (dose: 4.0 mg/kg/injection, schedule: Q01DX009 (ip), vehicle: saline) is 209 % of control; the T/C (dose: 4.0 mg/kg/injection, schedule: Q04DX003 (ip), vehicle: saline) was 120 % of control; the T/C (dose: 6.0 mg/kg/injection, schedule: Q01DX009 (ip), vehicle: saline) was 118 % of control; the T/C (dose: 8.0 mg/kg/injection, schedule: Q04DX003 (ip), vehicle: saline) was 200 % of control. Besides, the T/C (dose: 9.0 mg/kg/injection, schedule: Q01DX009 (ip), vehicle: saline) is 100 % of control.

As to `COC(=O)C(CSSCC(C(=O)NC(Cc1ccccc1)C(=O)NCC(=O)OC(C)(C)C)N1C(=O)CCC1=O)NC(=O)OCc1ccccc1` (stereo not given), the T/C runs as follows: under setting [1], 103 % of control; under setting [2], 93 % of control; under setting [3], 96 % of control.

For `CC(C)(C)c1cc(CO)c(Sc2c(CO)cc(C(C)(C)C)cc2CO)c(CO)c1`, the T/C reads like this: (dose: 12.5 mg/kg/injection, schedule: Q01DX001 (ip), vehicle: saline with Tween-80) 92 % of control; (dose: 25.0 mg/kg/injection, schedule: Q01DX001 (ip), vehicle: saline with Tween-80) 100 % of control; (dose: 50.0 mg/kg/injection, schedule: Q01DX001 (ip), vehicle: saline with Tween-80) 95 % of control.

As to `COC1OC2COc3ccccc3OC2C(NC#N)C1OC` (stereo not given), the T/C (dose: 60.0 mg/kg/injection, schedule: Q01DX005 (ip), vehicle: Klucel (hydroxypropylcellulose) (HPC)) is 112 % of control; the T/C (dose: 120.0 mg/kg/injection, schedule: Q01DX005 (ip), vehicle: Klucel (hydroxypropylcellulose) (HPC)) is 108 % of control; the T/C (dose: 240.0 mg/kg/injection, schedule: Q01DX005 (ip), vehicle: Klucel (hydroxypropylcellulose) (HPC)) was 107 % of control.

Take `Fc1ccccc1C(Nc1ncccn1)Nc1ncccn1`: the T/C is 88 % of control under setting [4]; 94 % of control (dose: 50.0 mg/kg/injection, schedule: Q01DX009 (ip), vehicle: saline); 87 % of control under setting [5]; 99 % of control (dose: 100.0 mg/kg/injection, schedule: Q01DX009 (ip), vehicle: saline); 87 % of control under setting [6]; 94 % of control (dose: 200.0 mg/kg/injection, schedule: Q01DX009 (ip), vehicle: saline).

As to `CCc1cc2nc3c(=O)[nH]c(=O)nc-3n(CCN(CCO)CCO)c2cc1CC`, the T/C was 99 % of control under setting [7], 116 % of control under setting [8] and 108 % of control under setting [9].

In the case of `CCOc1cc2c(cc1C(C)c1ccc(O)c(OC)c1)OCO2` (stereo not given), the T/C by setting is: (dose: 50.0 mg/kg/injection, schedule: Q01DX005 (ip), vehicle: distilled water + Tween-80) 99 % of control; (dose: 100.0 mg/kg/injection, schedule: Q01DX005 (ip), vehicle: distilled water + Tween-80) 101 % of control; (dose: 200.0 mg/kg/injection, schedule: Q01DX005 (ip), vehicle: distilled water + Tween-80) 104 % of control.

On to `CCC(NC(C)C)C(O)c1ccc(O)c2[nH]c(=O)ccc12` (stereo not given), for which the T/C by setting is: (dose: 50.0 mg/kg/injection, schedule: Q01DX009 (ip), vehicle: Klucel (hydroxypropylcellulose) (HPC)) 104 % of control; (dose: 100.0 mg/kg/injection, schedule: Q01DX009 (ip), vehicle: Klucel (hydroxypropylcellulose) (HPC)) 99 % of control; (dose: 200.0 mg/kg/injection, schedule: Q01DX009 (ip), vehicle: Klucel (hydroxypropylcellulose) (HPC)) 96 % of control.

In the case of `O=C(NC(Cc1ccc(O)cc1)C(=O)O)C(=O)c1c[nH]c2ccccc12` (stereo not given), the T/C is, setting by setting: under setting [7], 96 % of control; under setting [8], 97 % of control; under setting [9], 100 % of control.

Turning to `Cc1nnc(Cl)c(C#N)c1C`, the T/C reads like this: under setting [1], 104 % of control; under setting [2], 92 % of control; under setting [3], 95 % of control.

Take `CC(=O)N(C)c1ccc(N=Nc2ccc3ncccc3c2)cc1`: the T/C (dose: 12.5 mg/kg/injection, schedule: Q01DX005 (ip), vehicle: saline with Tween-80) was 102 % of control and the T/C (dose: 25.0 mg/kg/injection, schedule: Q01DX005 (ip), vehicle: saline with Tween-80) is 100 % of control.

For the compound `CN(C)c1nc(N(C)C)nc(N(C)C)n1`, the T/C under setting [10] was 110 % of control; the T/C under setting [11] was 105 % of control and 108 % of control and 96 % of control; the T/C (dose: 20.0 mg/kg/injection, schedule: Q01DX009 (ip), vehicle: saline with Tween-80) was 108 % of control; the T/C (dose: 25.0 mg/kg/injection, schedule: Q01DX001 (ip), vehicle: Klucel (hydroxypropylcellulose) (HPC)) is 103 % of control and 104 % of control; the T/C (dose: 25.0 mg/kg/injection, schedule: Q01DX009 (ip), vehicle: saline with Tween-80) was 98 % of control and 103 % of control and 107 % of control; the T/C (dose: 25.0 mg/kg/injection, schedule: Q04DX002 (ip), vehicle: Klucel (hydroxypropylcellulose) (HPC)) was 100 % of control and 112 % of control. In addition, the T/C reads like this: under setting [12], 110 % of control and 115 % of control; (dose: 40.0 mg/kg/injection, schedule: Q01DX009 (ip), vehicle: saline with Tween-80) 109 % of control; under setting [4], 104 % of control and 109 % of control (2×); (dose: 75.0 mg/kg/injection, schedule: Q01DX005 (ip), vehicle: Klucel (hydroxypropylcellulose) (HPC)) 105 % of control; (dose: 80.0 mg/kg/injection, schedule: Q01DX009 (ip), vehicle: saline with Tween-80) 111 % of control; under setting [5], 114 % of control and 119 % of control and 97 % of control. In addition, the T/C is, setting by setting: (dose: 150.0 mg/kg/injection, schedule: Q01DX005 (ip), vehicle: Klucel (hydroxypropylcellulose) (HPC)) 105 % of control; (dose: 160.0 mg/kg/injection, schedule: Q01DX009 (ip), vehicle: saline with Tween-80) 118 % of control; under setting [6], 108 % of control.

Regarding `COc1cccc(N=C(C2=C(O)c3ccccc3C2=O)c2ccccc2)c1`, the T/C is 101 % of control (dose: 100.0 mg/kg/injection, schedule: Q04DX002 (ip), vehicle: saline with Tween-80); 97 % of control (dose: 200.0 mg/kg/injection, schedule: Q04DX002 (ip), vehicle: saline with Tween-80); 100 % of control (dose: 400.0 mg/kg/injection, schedule: Q04DX002 (ip), vehicle: saline with Tween-80).

With `CCOC(=O)c1sc(SSc2sc(C(=O)OCC)c(C)c2[N+](=O)[O-])c([N+](=O)[O-])c1C`, the T/C reads like this: (dose: 1.56 mg/kg/injection, schedule: Q01DX009 (ip), vehicle: saline with Tween-80) 94 % of control; (dose: 3.12 mg/kg/injection, schedule: Q01DX009 (ip), vehicle: saline with Tween-80) 101 % of control; under setting [10], 93 % of control; under setting [11], 88 % of control; (dose: 25.0 mg/kg/injection, schedule: Q04DX003 (ip), vehicle: saline with Tween-80) 102 % of control; (dose: 50.0 mg/kg/injection, schedule: Q04DX003 (ip), vehicle: saline with Tween-80) 93 % of control. Also, the T/C (dose: 100.0 mg/kg/injection, schedule: Q04DX003 (ip), vehicle: saline with Tween-80) is 86 % of control and 97 % of control.

Regarding `OCc1cnccc1Cl`, the T/C (dose: 60.0 mg/kg/injection, schedule: Q01DX005 (ip), vehicle: saline) is 95 % of control and the T/C (dose: 120.0 mg/kg/injection, schedule: Q01DX005 (ip), vehicle: saline) is 100 % of control.

Regarding `CCCC/C=C\CCCCCCCCCC1=C(O)C(=O)C=C(OC)C1=O`, the T/C (dose: 25.5 mg/kg/injection, schedule: Q01DX005 (ip), vehicle: Klucel (hydroxypropylcellulose) (HPC)) is 116 % of control.

On to `O=C1CC(c2ccccc2)C(c2ccccc2)C1=O` (stereo not given), for which the T/C is 107 % of control (dose: 12.5 mg/kg/injection, schedule: Q04DX003 (ip), vehicle: Klucel (hydroxypropylcellulose) (HPC)); 102 % of control under setting [12]; 102 % of control (dose: 50.0 mg/kg/injection, schedule: Q04DX003 (ip), vehicle: Klucel (hydroxypropylcellulose) (HPC)).
